Measured values published in US11572366B2, “Heterocyclic compounds as immunomodulators” (Incyte Corporation, priority 2015, dated 2023).

Target: PD-1/PD-L1 protein/protein interaction (Homo sapiens (Human), UniProt Q9NZQ7)
Assay: PD-1/PD-L1 Homogeneous Time-Resolved Fluorescence (HTRF) binding assay
Conditions: recombinant human PD-L1 (19-238) His-tag 10 nM, human PD-1 (25-167) Fc tag 3 nM, 25° C., PBS pH 7.4
Method: Example A. PD-1/PD-L Homogeneous Time-Resolved Fluorescence (HTRF) Binding Assay
The assays were conducted in a standard black 384-well polystyrene plate with a final volume of 20 μL. Inhibitors were first serially diluted in DMSO and then added to the plate wells before the addition of other reaction components. The final concentration of DMSO in the assay was 1%. The assays were carried out at 25° C. in the PBS buffer (pH 7.4) with 0.05% Tween-20 and 0.1% BSA. Recombinant human PD-L1 protein (19-238) with a His-tag at the C-terminus was purchased from AcroBiosystems (PD1-H5229). Recombinant human PD-1 protein (25-167) with Fc tag at the C-terminus was also purchased from AcroBiosystems (PD1-H5257). PD-L1 and PD-1 proteins were diluted in the assay buffer and 10 μL was added to the plate well. Plates were centrifuged and proteins were preincubated with inhibitors for 40 minutes. The incubation was followed by the addition of 10 μL of HTRF detection buffer supplemented with Europium cryptate-labeled anti-human IgG (PerkinElmer-AD0212) specific for Fe and anti-His antibody conjugated to SureLight®-Allophycocyanin (APC, PerkinElmer-AD0059H). After centrifugation, the plate was incubated at 25° C. for 60 min. before reading on a PHERAstar FS plate reader (665 nm/620 nm ratio). Final concentrations in the assay were—3 nM PD1, 10 nM PD-L1, 1 nM europium anti-human IgG and 20 nM anti-His-Allophycocyanin.IC50 determination was performed by fitting the curve of percent control activity versus the log of the inhibitor concentration using the GraphPad Prism 5.0 software.

Sequence of PD-1/PD-L1 protein/protein interaction (Q9NZQ7 19-238): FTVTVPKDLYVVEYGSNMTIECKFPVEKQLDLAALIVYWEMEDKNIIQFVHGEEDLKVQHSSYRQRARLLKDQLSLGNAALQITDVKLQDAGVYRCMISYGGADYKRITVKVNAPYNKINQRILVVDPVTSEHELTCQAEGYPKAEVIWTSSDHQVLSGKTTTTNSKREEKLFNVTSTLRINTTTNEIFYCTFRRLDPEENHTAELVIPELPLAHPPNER

IC50	Structure (SMILES)
10 to 100 nM	Cc1c(-c2ccc3c(c2)OCCO3)ccnc1-c1nc2cc(CN3CCCC[C@H]3C(=O)O)c(OCC#N)cc2o1 [Example 35, (2S)-1-({6-(cyanomethoxy)-2-[4-(2,3-dihydro-1,4-benzodioxin-6-yl)-3-methylpyridin-2-yl]-1,3-benzoxazol-5-yl}methyl)piperidine-2-carboxylic Acid]
10 to 100 nM	Cc1c(-c2ccccc2)cccc1-c1nc2cc(CNCCO)c(OCc3cccc(C#N)c3)cc2o1 [Example 29, 3-({[5-{[(2-hydroxyethyl)amino]methyl}-2-(2-methylbiphenyl-3-yl)-1,3-benzoxazol-6-yl]oxy}methyl)benzonitrile]
≤ 10 nM	Cc1cc(CNCCO)cc2nc(-c3cccc(-c4ccc5c(c4)OCCO5)c3C#N)oc12 [Example 18, 2-(2,3-dihydro-1,4-benzodioxin-6-yl)-6-(5-{[(2-hydroxyethyl)amino]methyl}-7-methyl-1,3-benzoxazol-2-yl)benzonitrile]
≤ 10 nM	Cc1c(-c2ccc3c(c2)OCCO3)cccc1-c1nc2cc(CN3CCCC[C@H]3C(=O)O)c(OCC#N)cc2o1 [Example 36, (2S)-1-({6-(cyanomethoxy)-2-[3-(2,3-dihydro-1,4-benzodioxin-6-yl)-2-methylphenyl]-1,3-benzoxazol-5-yl}methyl)piperidine-2-carboxylic Acid]

The next lines start with the compound.

Structure (SMILES)	IC50
Cc1c(-c2ccccc2)cccc1-c1nc2cc(CN3CCCC[C@H]3C(=O)O)ccc2o1 [Example 7, (2S)-1-{[2-(2-methylbiphenyl-3-yl)-1,3-benzoxazol-5-yl]methyl}piperidine-2-carboxylic Acid]	10 to 100 nM
Cc1c(-c2ccccc2)cccc1-c1nc2cc(CN3CCCC[C@H]3C(=O)O)ccc2s1 [Example 19, (2S)-1-{[2-(2-methylbiphenyl-3-yl)-1,3-benzothiazol-5-yl]methyl}piperidine-2-carboxylic Acid]	100 to 1000 nM
Cc1c(-c2ccccc2)cccc1-c1nc2cc(CN3CCCC[C@H]3C(=O)O)cc(C)c2o1 [Example 11, (2S)-1-{[7-methyl-2-(2-methylbiphenyl-3-yl)-1,3-benzoxazol-5-yl]methyl}piperidine-2-carboxylic Acid]	≤ 10 nM
